Entries after “also recorded” stand apart in the source; their conditions may differ.
Experiments:
[1] = tested on: human vascular endothelial cells (HUVECs); test: Suppression of cell death by addition of medium chain fatty acid, crystal violet / phase contrast microscopy; format: cell-based; settings: auraptene 5 μM used alone, printed at 37° C. (FIG. 19A)
[2] = tested on: fat droplets in human vascular endothelial cells (HUVECs); test: Intracellular fat droplets, BODIPY staining, confocal microscopy; format: cell-based
Method: Then, nine 35-mm dishes were provided, and 2 mL/dish of the solution with the adjusted HUVEC density was inoculated. Auraptene (10 mM) and tangeretin (10 mM) were each added at 2 μL (final concentration: 10 μM)/dish to three dishes. Also, DMSO was added at 2 μL/dish to the remaining 3 dishes to prepare a control.
The supernatant of the HUVECs cultured in each 35-mm dish was removed, and 2 mL/dish of 4% paraformaldehyde in a phosphate buffer solution was added. The cells were left standing at room temperature for 1 hour for cell fixation. The solution was removed, and then, the cells were rinsed twice. 1 mL/dish of BODIPY diluted 2000-fold with a FACS buffer was added, and the cells were left standing at room temperature for 30 minutes in the dark for reaction.
The solution was removed, and then, the cells were rinsed twice. Two drops of Diamond Antifade Mountant with DAPI were added to the cells, and a round glass cover was put on the cells, followed by fluorescence photographing under a confocal laser scanning microscope.

[3] = tested on: human vascular endothelial cells (HUVECs); test: DiOC6 / PI staining and flow cytometry of HUVECs under heat stress load; format: cell-based; settings: heat stress load 40° C. for 2 days, flow cytometry, vs DMSO
Method: Two days later, the culture solution of each well was removed with an aspirator. […] The supernatant was removed, and then, 5 mL of a culture medium at 37° C. was added to the cells and stirred. After the stirring, DiOC6 (final concentration: 80 nM) was added to each 15-mL tube and reacted at the same temperature as the culture temperature for 30 minutes.
The supernatant was removed, and then, 1 mL of a culture medium was added to the cells, and 2 μL of PI (Sigma-Aldrich Co. LLC) was added. The cells thus supplemented were transferred to a FACS tube and measured in a flow cytometer (BD).
In order to quantify the effects, the cytotoxicity suppressive effects of auraptene (component A) and tangeretin (component T) inhibiting the cell death caused by the load of heat stress were quantified using DiOC6 staining and flow cytometry as described above. The DiOC6 dye is a reagent for measuring mitochondrial activity and is a reagent that can perform measurement based on the attenuation of the amount of fluorescence by cytotoxicity (cell death, etc.).

PPARγ = PPARγ expression in HUVECs, antibody staining, confocal microscopy; format: cell-based, human
Method: (§1) Then, six 35-mm dishes were provided, and 2 mL/dish of the solution with the adjusted HUVEC density was inoculated. Auraptene (10 mM) and tangeretin (10 mM) were each added at 2 μL (final concentration: 10 μM)/dish to two dishes. Also, DMSO was added at 2 μL/dish to the remaining 2 dishes to prepare a control.
(§2) The supernatant of the HUVECs cultured in each 35-mm dish was removed, and 2 mL/dish of 4% paraformaldehyde in a phosphate buffer solution was added. The cells were left standing at room temperature for 1 hour.
(§3) The solution was removed, and then, the cells were rinsed twice. 2 mL/dish of 0.5% Triton-X00 (Wako Pure Chemical Industries, Ltd.) in PBS was added, and the cells were left standing at room temperature for 5 minutes. The solution was removed, and then, the cells were rinsed twice. 1 mL/dish of an anti-ABCD3 antibody, an anti-PPARα antibody or an anti-PPARγ antibody, each of which was diluted 150-fold with a FACS buffer, was added, and the cells were left standing at room temperature for 2 hours for reaction.
(§4) The solution was removed, and then, the cells were rinsed twice. 1 mL/dish of DyLight 649-labeled anti-Rabbit IgG antibody diluted 500-fold with a FACS buffer was added, and the cells were left standing at room temperature for 1 hour in the dark for reaction. The solution was removed, and then, the cells were rinsed twice. Two drops of Diamond Antifade Mountant with DAPI were added to the cells, and a round glass cover was put on the cells, followed by fluorescence photographing under a confocal laser scanning microscope.

PPARα = PPARα expression in HUVECs, antibody staining, confocal microscopy; format: cell-based, human
Method: as §1, §2, §3, §4

ABCD3 = ABCD3 expression in HUVECs, antibody staining, confocal microscopy; format: cell-based, human; settings: usual culture and heat stress load (40° C. for 3 days), vs DMSO
Method: as §1, §2, §3
The solution was removed, and then, the cells were rinsed twice. […] Two drops of Diamond Antifade Mountant with DAPI were added to the cells, and a round glass cover was put on the cells, followed by fluorescence photographing under a confocal laser scanning microscope.

[4] = Table 2 summary, HUVECs 40° C., 37° C. as comparative control
[5] = HUVECs, 40° C. and 1 day, 10 μM, vs DMSO

**Q.** For `CC(C)=CCC/C(C)=C/COc1ccc2ccc(=O)oc2c1` [auraptene, 7-geranyloxycoumarin], which “overall number of cells, auraptene alone” value [1] is on record?
**A.** The value was “increase the overall number of cells”.

**Q.** And the “amount of fat droplets under heat stress load” value ([2]; HUVECs, 40° C. for 2 days, 10 μM, BODIPY, vs DMSO)?
**A.** The value was “decrease in the amount of fat droplets; also recorded: decreased the amount of fat droplets”.

**Q.** What about the “amount of fat droplets at usual culture” value ([2]; HUVECs, usual culture (37° C.), 10 μM, vs DMSO) of the same compound?
**A.** Its value is “no change in the amount of fat droplets”.

**Q.** And the “Amount of fat droplets” value [2, 4]?
**A.** The value was “Decreased”.

**Q.** What about the “number of DiOC6 staining-positive cells (suppression of cytotoxicity, cell death)” value [3] of the same compound?
**A.** The value was “increased the number of DiOC6 staining-positive cells”.

**Q.** What about the “expression of PPARγ” value (PPARγ; [5]) of the same compound?
**A.** Its value is “increase in the expression of PPARγ”.

**Q.** And the PPARγ (PPARγ; [4])?
**A.** Its PPARγ is “Unchanged”.

**Q.** What about the “expression of PPARα” value (PPARα; [5]) of the same compound?
**A.** The value was “increase in the expression of PPARα”.

**Q.** What about the PPARα (PPARα; [4]) of the same compound?
**A.** Its PPARα is “Increased”.

**Q.** What about the “change in the expression of ABCD3” value (ABCD3) of the same compound?
**A.** Its value is “change in the expression of ABCD3 was not observed; also recorded: not found”.

Source: patent US11559512B2, “Composition for prevention, alleviation, and/or treatment of heat illness” (priority 2017, dated 2023)
